Reference: patent US20180221343A1, “PHARMACEUTICAL COMPOSITION FOR PREVENTING OR TREATING MACULAR DEGENERATION” (KOREA RESEARCH INSTITUTE OF CHEMICAL TECHNOLOGY, priority 2011, published 2018)

Legend:
corneal angiogenesis = assay: Inhibitory effects against corneal angiogenesis, subconjunctival injection and eye drop-administration; format: in vivo, Sprague Dawley rats; conditions: subconjunctival injection 20 μl plus eye drop 50 μl; KR 0.3 mg/ml, Avastin 10 mg/ml
Protocol: The tests were performed by using Sprague Dawley rats (8 weeks old, male) as animals having corneal damage (15 rats for the experiment group; and 1 rat for normal group, respectively). The corneal damage was induced by applying a cotton swab coated with silver nitrate to the surface of the rat corneas, as as to induce a damage having a diameter of 2 mm in the central cornea. On the third day after inducing the corneal damages, we confirmed the establishment of corneal angiogenesis-inducing models and then subconjunctivally injected a solution (20 μl) prepared by dissolving the compound of Preparation Example 23, i.e., (2R,3R,4S)-6-amino-4-[N-(4-chlorophenyl)-N-(1H-imidazol-2-ylmethyl)amino]-3-hydroxy-2-methyl-2-dimethoxymethyl-3,4-dihydro-2H-1-benzopyran (KR-31831) in phosphate buffered saline (PBS) containing 10% PEG 400, in the concentration of 0.3 mg/ml. […] The evaluations quantifying the photographs of FIG. 1 were performed by using the Image J (NIH, USA) program and the results thereof were shown in FIG. 2.
Except for performing both the subconjunctival injection and the eye drop-administration of (2R,3R,4S)-6-amino-4-[N-(4-chlorophenyl)-N-(1H-imidazol-2-ylmethyl)amino]-3-hydroxy-2-methyl-2-dimethoxymethyl-3,4-dihydro-2H-1-benzopyran and Avastin, the inhibitory effects against angiogenesis were evaluated according to the same manners as in Example 1. […]

[1] = tested on: rat corneal epithelial wound; assay: Corneal Wound Healing Assay (2); format: in vivo, SD rats; conditions: topical 3 and 6 mg/ml every 6 hour; observed at 0 and 18 hours
Protocol: SD rats (male, 8 weeks, 250 g) were used. Animal study protocol was in accordance with the Association for Research in Vision and Ophthalmology Statement for the Use of Animals in Ophthalmic and Visual Research. All animals were housed in individual cages and maintained under standard conditions (12 hour light-dark cycle).
Rats were anesthetized by Zoletil® (50 mg/kg, Tiletamina 25 mg, Zolazepam 25 mg; Vibrac, Carros, France) and Rompun® (10 mg/kg, Bayer, France). The cornea was anesthetized by topical 0.5% proparacaine (Alcaine®; Alcon, Fort Worth, Tex., USA). After applying 0.5% proparacaine drops, 5.0 mm Trephine Blade® (Katena, Denville, N.J., USA) was placed and fixed firmly on the corneal surface. One drop of 20% ethanol were put into the tephine well and left in place for 30 seconds, then absorbed with a dry cellulose sponge (Merocel®; Medtronic Solan, Jacksonville, Fla., USA) and irrigated with normal saline. And the epithelium was removed in 6.0 mm diameter.
The drugs were each topically applied in 3 mg/ml (0.3%) and 6 mg/ml (0.6%) concentrations (in 5% DMSO, 10% PEG (Mw 400) and 85% saline (0.9% NaCl)) in every 6 hour, respectively.
The corneal wounds were captured by digital camera under cobalt blue light and the defect area was analyzed by Image J software (Ver 4.1, NIH). The significance between Vehicle and each group was analyzed by paired T-test, and the significance of the test was analyzed by One Way ANOVA analysis.

corneal epithelial cells = assay: Effects on normal regeneration of corneal epithelial cells in animal models; format: in vivo, rats; conditions: eye drop 50 μl twice a day
Protocol: Animal models having damage in the corneal epithelial cells were established by anesthetizing rats (8 weeks old, 200 g to 250 g) with a mixed solution of rompun and zoletil (1 ml/kg) and then scraping the corneal epithelial cells at the center of the cornea in a circular form having 2 mm diameter with a surgical knife. The removal of corneal epithelial cells was confirmed with a 1% fluorescein solution. The eye drop formulation (50 μl) used in Example 2 was administered twice a day, i.e., every 12 hours. The evaluations quantifying the photographs of FIG. 5 were performed by using the Image J (NIH, USA) program and the results thereof were shown in FIG. 6.

## COC(OC)[C@]1(C)Oc2ccc(N)cc2[C@H](N(Cc2ncc[nH]2)c2ccc(Cl)cc2)[C@H]1O [KR-31831, (2R,3R,4S)-6-amino-4-[N-(4-chlorophenyl)-N-(1H-imidazol-2-ylmethyl)amino]-3-hydroxy-2-methyl-2-dimethoxymethyl-3,4-dihydro-2H-1-benzopyran]
Corneal angiogenesis
  angiogenesis in comparison with the angiogenesis (100%) of the control group: 25.1±10.8%
[1]
  inhibitory effect on normal healing of rat corneal epithelial wound: did not show inhibitory effect
Corneal epithelial cells; 0 hour after the administration
  healing rate of corneal epithelial damage: 52±9%
Corneal epithelial cells; 18 hours after the administration
  healing rate of corneal epithelial damage: 55±9%
Corneal epithelial cells; 36 hours after the administration
  healing rate of corneal epithelial damage: 94±8%
